Measured values: article PMC11766795 (Marine Drugs, 2025)

What was measured:
pseudotyped MARV = assay: microbe, parasite or virus in culture; assay type: cell-based, Marburg marburgvirus; conditions: for IC50: Orthomarburgvirus marburgense, TZM-bl, read-out: IC50 (µM) Pseudovirus, MARV
in vitro = conditions: human
[1] = test system: Wild-type EBOV (Makona C07 strain, IRF0192); assay: microbe, parasite or virus in culture; assay type: cell-based, Ebola virus; conditions: Zaire ebolavirus, Huh-7, 48 h, read-out: IC50 (µM) Infectious Virus, EBOV
[2] = test system: vesicular stomatitis virus (VSV); assay type: cell-based
MARV (Angola, IRF0202) = assay: cells; assay type: cell-based, Marburg virus; conditions: Homo sapiens, Huh-7, 24 h, read-out: IC50 (µM) Infectious Virus, MARV
HIV strain, HXBc2 (HX) = assay type: cell-based, Human immunodeficiency virus
[3] = test system: amphitropic murine leukemia virus (A-MLV); assay type: cell-based
pseudotyped virus EBOV = assay: microbe, parasite or virus in culture; assay type: cell-based, Zaire ebolavirus; conditions: for IC50: Zaire ebolavirus, TZM-bl, read-out: IC50 (µM) Pseudovirus, EBOV
[4] = target: RBD of EBOV-GP (RBD-Fc fusion protein) (Zaire ebolavirus, UniProt Q05320); assay: biochemical; assay type: binding
Chain of RBD of EBOV-GP (RBD-Fc fusion protein) (Q05320 54-201 limits assumed): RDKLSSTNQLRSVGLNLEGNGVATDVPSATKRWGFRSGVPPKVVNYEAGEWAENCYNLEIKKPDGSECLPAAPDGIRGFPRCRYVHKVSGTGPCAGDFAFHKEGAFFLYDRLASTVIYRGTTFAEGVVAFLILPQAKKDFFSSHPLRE

Row | Structure (SMILES) | Activity in screening against pseudotyped MARV (pseudotyped MARV) | Neutralization of pseudotyped MARV in specificity test (pseudotyped MARV) | SI, Selectivity index (CC50/IC50), MARV (pseudotyped MARV) | IC50 (pseudotyped MARV) | CC50 (in vitro) | IC50 [1] | Neutralization of pseudotyped VSV (specificity) [2] | IC50 (MARV (Angola, IRF0202)) | Neutralization of pseudotyped HIV (specificity) (HIV strain, HXBc2 (HX)) | Neutralization of pseudotyped A-MLV (specificity) [3] | Activity in screening against pseudotyped EBOV (pseudotyped virus EBOV) | Neutralization of pseudotyped EBOV in specificity test (pseudotyped virus EBOV) | SI, Selectivity index (CC50/IC50), EBOV (pseudotyped virus EBOV) | IC50 (pseudotyped virus EBOV) | Kd [4]
1 | CC(C)=CCC[C@]1(C)[C@@H](O)CC[C@@]2(C)[C@H]1CC[C@H]1Cc3c([nH]c4ccccc34)[C@@]12C [Compound W26, Emindole SB] | modest activities | neutralizing | 10 | 2.15 µM | 20.9 µM | 49.8 µM | neither of them did so | 95.7 µM | neither of them did so | neither of them did so | modest activities | neutralizing | 7 | ~3.17 µM | –
2 | C[C@@]12NC(=O)[C@H](Cc3c1[nH]c1ccccc31)n1c2nc2ccccc2c1=O [Compound W12, Fumiquinazoline J] | modest activities | neutralizing | 26 | 0.96 µM | 24.8 µM | 15.3 µM | neither of them did so | 64.5 µM | neither of them did so | neither of them did so | modest activities | neutralizing | 15 | ~1.68 µM | 91.4 µM
3 | CC(=O)OCC(=O)OC1CCC2(C)C(CCC3c4c([nH]c5ccccc45)CC32C)C1(C)CCC=C(C)C (centres unmarked) [Compound W27, Fusaindoterpene B] | modest activities | – | 6 | 2.63 µM | 16.3 µM | 33 µM | – | 83.3 µM | – | – | modest activities | – | 7 | ~2.82 µM | –
4 | CC(=O)N[C@@H](Cc1c[nH]c2ccccc12)C(=O)O [N-Ac-L-tryptophan, N-Acetyl-L-Tryptophan, reference compound] | – | – | – | – | > 60 µM | – | – | – | – | – | some activity | – | – | > 48 µM | –
5 | CC(=O)N[C@H](Cc1c[nH]c2ccccc12)C(=O)O [N-Ac-D-tryptophan, N-Acetyl-D-Tryptophan, reference compound] | – | – | – | – | > 60 µM | – | – | – | – | – | some activity | – | – | > 48 µM | –
